Consider eight compounds from patent US6391595B1, “Transferase and amylase, process for producing the enzymes, use thereof, and gene coding for the same” (Kirin Beer Kabushiki Kaisha, priority 1994, dated 2002).

The subject of assay [1] is transferase derived from the Sulfolobus solfataricus strain KM1. Nature of the assay: Substrate specificity of the transferase (production of α-1,α-1-transferred isomer). It counts as biochemical. As to the method: It was investigated whether or not the present enzyme acts on each of the substrates listed in Table 9 below to produce its α-1,α-1-transferred isomer. Here, the activity measurement was performed in the same manner as in Example I-1.

Assay [2] has as its target T1, recombinant novel amylase (Saccharolobus solfataricus, UniProt Q55088).
T1 sequence (Q55088 1-559): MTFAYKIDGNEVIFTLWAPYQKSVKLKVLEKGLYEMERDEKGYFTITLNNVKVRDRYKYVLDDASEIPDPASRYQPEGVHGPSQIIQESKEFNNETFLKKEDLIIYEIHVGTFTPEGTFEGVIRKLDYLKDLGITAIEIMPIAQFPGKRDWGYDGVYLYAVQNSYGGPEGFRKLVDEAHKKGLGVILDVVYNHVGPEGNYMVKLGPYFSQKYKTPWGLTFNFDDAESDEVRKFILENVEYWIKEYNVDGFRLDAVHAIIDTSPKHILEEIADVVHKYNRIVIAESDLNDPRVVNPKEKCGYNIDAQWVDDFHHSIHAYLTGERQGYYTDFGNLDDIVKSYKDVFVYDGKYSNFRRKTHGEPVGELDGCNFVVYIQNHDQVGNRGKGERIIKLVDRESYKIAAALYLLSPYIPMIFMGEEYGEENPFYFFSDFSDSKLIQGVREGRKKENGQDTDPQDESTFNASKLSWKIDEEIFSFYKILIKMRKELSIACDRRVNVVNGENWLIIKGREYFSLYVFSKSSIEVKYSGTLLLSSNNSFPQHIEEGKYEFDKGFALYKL
Nature of the assay: Substrate specificity of the recombinant novel amylase (crude enzyme solution). Conditions: for Liberated oligosaccharide / Production rate of mono- and disaccharides: 35.2 Units/ml crude enzyme solution, 10 mM substrate (amylopectin and soluble starch 3.0%); for Production rate of mono- and disaccharides: 1 Unit = 1 μmol per hour.

In assay [3] the target is T2, amylase derived from the Sulfolobus solfataricus strain KM1 (Saccharolobus solfataricus, UniProt Q55088).
T2 construct: endogenous in cells; host or cells: Sulfolobus solfataricus strain KM1 cells
T2 sequence (Q55088 1-559): T1 sequence (Q55088 1-559)
Nature of the assay: Substrate specificity of the purified amylase (hydrolyzing properties, TSK-gel Amide-80 HPLC). It counts as biochemical. Conditions: for Liberated oligosaccharide / Production rate of mono- and disaccharides: 25.0 Units/ml enzyme, 10 mM substrate (amylopectin and soluble starch 2.8%); for Production rate of mono- and disaccharides: 1 Unit = 1 μmol per hour. Here is the method:
The hydrolyzing properties were analyzed by allowing 25.0 Units/ml (in terms of the enzymatic activity when maltotriosyltrehalose is used as the substrate) of the present purified enzyme to act on the various 10 mM substrates (except amylopectin and soluble starch were used as 2.8% solutions) listed in Table 16 below, and the hydrolyzed products were also analyzed.
Incidentally, each enzymatic activity in Table 16 is expressed with such a unit as 1 Unit equals the activity of liberating 1 μmol of each of the monosaccharide and disaccharide per hour.

In assay [4] the test system is recombinant novel transferase. Nature of the assay: Conversion of maltooligosaccharides into α-1,α-1-transferred isomers by transferase from a transformant. It counts as biochemical, Sulfolobus solfataricus. Conditions: 12.7 Units/ml concentrated enzyme solution (on maltotriose); 1 Unit = 1 μmol α-1,α-1-transferred isomer per hour. As to the method:
Maltotriose (G3)-Maltoheptaose (G7) (all manufactured by Hayashibara Baiokemikaru Co.) were used as substrates. The crude enzyme solution obtained in Example I-14 was lyophilized, and then suspended in a 50 mM sodium acetate solution (pH 5.5) to make a concentrated enzyme solution. Each of the substrates was subjected to reaction with 12.7 Units/ml (in terms of the enzymatic activity when maltotriose is used as the substrate) of the concentrated enzyme solution to produce a corresponding α-1,α-1-transferred isomer. Each reaction product was analyzed by the method described in Example I-1 to examine the yield and the enzymatic activity. Incidentally, as to the enzymatic activity shown in Table 38, 1 Unit is defined as an enzymatic activity of transferring maltooligosaccharide to produce 1 μmol per hour of a corresponding α-1,α-1-transferred isomer.

Assay [5] concerns transferase derived from the Sulfolobus solfataricus strain KM1. Nature of the assay: Conversion of maltooligosaccharides into α-1,α-1-transferred isomers by purified transferase. The class given is biochemical. Conditions: substrate 100 mM; for Enzyme activity: enzyme 13.5 Units/ml (on maltotriose), 1 Unit = 1 umol α-1,α-1-transferred isomer per hour. Here is the method: As the substrates, maltotriose (G3)-maltoheptaose (G7) were used in a concentration of 100 mM. The purified enzyme obtained in Example I-2 was then allowed to act on each of the above substrates in an amount of 13.5 Units/ml (in terms of the enzyme activity when the substrate is maltotriose) to produce a corresponding α-1,α-1-transferred isomer. Each product was analyzed by the method in Example I-1, and investigated its yield and enzyme activity. Incidentally, in Table 10, each enzymatic activity value was expressed with such a unit as 1 Unit equals the activity of converting the maltooligosaccharide into 1 umol of corresponding α-1,α-1-transferred isomer per hour.

For assay [6], the target named is T3, swine pancreatic α-amylase (Sus scrofa, UniProt P00690).
T3 construct: purchased Sigma Co. A-6255
T3 sequence (P00690 16-511): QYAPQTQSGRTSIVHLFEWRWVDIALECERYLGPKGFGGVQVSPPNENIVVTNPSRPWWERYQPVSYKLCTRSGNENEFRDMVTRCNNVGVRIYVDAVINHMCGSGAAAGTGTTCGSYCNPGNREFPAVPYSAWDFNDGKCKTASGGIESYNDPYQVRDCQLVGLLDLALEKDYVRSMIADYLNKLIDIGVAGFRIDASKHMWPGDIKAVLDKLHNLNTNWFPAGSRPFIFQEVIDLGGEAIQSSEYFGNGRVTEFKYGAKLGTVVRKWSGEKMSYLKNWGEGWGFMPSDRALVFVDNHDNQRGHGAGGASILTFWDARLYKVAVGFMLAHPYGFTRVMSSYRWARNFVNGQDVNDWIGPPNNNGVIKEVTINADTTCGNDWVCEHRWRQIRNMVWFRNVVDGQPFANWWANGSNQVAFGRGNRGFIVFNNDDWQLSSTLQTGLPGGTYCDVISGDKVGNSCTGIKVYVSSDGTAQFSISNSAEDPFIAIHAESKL
Nature of the assay: Hydrolysis of oligosaccharides by pancreatic α-amylase (comparative). The class given is biochemical. Conditions: 1 Unit/ml α-amylase, 10 mM substrate, pH 6.9, 20° C.; for Production rate of di- and trisaccharides: 1 Unit = 1 umol per hour. As to the method: Swine pancreatic α-amylase is known to hydrolyze maltooligosaccharide from the reducing end by two or three sugar units [“Denpun.Kanren Toushitsu Kouso Jikken-hou” (“Experimental methods in enzymes for starch and relating saccharides”), p 135, written by Michinori Nakamura and Keiji Kainuma, published by Gakkai-Shuppan-Sentah]. Upon this, a swine pancreatic α-amylase (manufactured by Sigma Co., A-6255) was analyzed the hydrolyzing properties and the hydrolysates as a comparative example for the novel amylase of the present invention. […] The activity of producing disaccharide and trisaccharide was employed as the index of the enzymatic activity, and the analysis was performed by the TSK-gel Amide-80 HPLC analyzing method described in Example II-1.
Incidentally, the enzymatic activity values in Table 17 were expressed with such a unit as 1 Unit equals the activity of liberating 1 umol of each oligosaccharide per hour.

For assay [7], the system named is transferase derived from the Sulfolobus solfataricus strain KM1. Nature of the assay: Influence of activators and inhibitors on glucosyltrehalose-producing activity. It counts as biochemical. Conditions: Concentration 0.5 mM.
Assay [8] deals with T2, amylase derived from the Sulfolobus solfataricus strain KM1. Nature of the assay: biochemical. It counts as biochemical. Conditions: Concentration 0.5 mM.

As to `OC[C@H]1O[C@H](OC[C@H]2O[C@H](OC[C@H]3OC(O)[C@H](O)[C@@H](O)[C@@H]3O)[C@H](O)[C@@H](O)[C@@H]2O)[C@H](O)[C@@H](O)[C@@H]1O` (stereo partly drawn) [Isomaltotriose], the “Action of the enzyme on the substrate” value in assay [1], in assay [2] and in assay [3] was “did not act” throughout. In addition, the Liberated oligosaccharide result in assay [2] and in assay [3] was “not decomposed” each time. The “Production rate of mono- and disaccharides” value in assay [2] and in assay [3] was 0 units/ml each time.

Consider Maltohexaose [Maltohexaose (G6)], for which the values for the Enzyme activity in assay [4] and in assay [5] were 87.3 unit/ml and 100.9 units/ml, respectively. The “Production rate of di- and trisaccharides” value in assay [6] is 4.44 units/ml. Also, the Residual activity in assay [7] is reported as 91.0%; in assay [8], 123.8%. In addition, the Liberated oligosaccharide entry in assay [3] is reported as “Glucose + G2 + G4 + G5”. Also, the “Production rate of mono- and disaccharides” value in assay [3] came out at 1.74 units/ml.

As for Maltoheptaose [Maltoheptaose (G7)], the Enzyme activity was 60.2 unit/ml in assay [4] and 70.5 units/ml in assay [5]. Besides, the “Production rate of di- and trisaccharides” value in assay [6] was found to be 4.45 units/ml. Further, the results for the Residual activity in assay [7] and in assay [8] were 93.5% and 129.2%, respectively. The Liberated oligosaccharide entry in assay [3] is “Glucose + G2 + G5 + G6”. In assay [3], the “Production rate of mono- and disaccharides” value is recorded as 1.80 units/ml.

As to `OC[C@H]1O[C@H](O[C@H]2[C@H](O)[C@@H](O)[C@@H](O[C@H]3[C@H](O)[C@@H](O)C(O)O[C@@H]3CO)O[C@@H]2CO)[C@H](O)[C@@H](O)[C@@H]1O` (mixture of isomers) [Maltotriose (G3), Maltotriose], the Enzyme activity in assay [4] is recorded as 12.7 unit/ml; in assay [5], 13.5 units/ml. For the same compound, the Liberated oligosaccharide entry is “not decomposed” in assay [6], “Glucose + G2” in assay [2] and “Glucose + G2” in assay [3]. Moreover, in assay [6], the “Production rate of di- and trisaccharides” value was found to be 0 units/ml. The results for the “Production rate of mono- and disaccharides” value in assay [2] and in assay [3] were 0.27 units/ml and 0.30 units/ml, respectively.

Regarding `OC[C@H]1O[C@H](O[C@H]2[C@H](O)[C@@H](O)[C@@H](O[C@H]3[C@H](O)[C@@H](O)[C@@H](O[C@H]4[C@H](O)[C@@H](O)C(O)O[C@@H]4CO)O[C@@H]3CO)O[C@@H]2CO)[C@H](O)[C@@H](O)[C@@H]1O` (stereo partly drawn) [Maltotetraose (G4), Maltotetraose], the Enzyme activity in assay [4] was found to be 72.5 unit/ml; in assay [5], 76.3 units/ml. Further, the Liberated oligosaccharide entry in assay [6], in assay [2] and in assay [3] was “Glucose + G2 + G3” throughout. The “Production rate of di- and trisaccharides” value in assay [6] turned out to be 0.49 units/ml. Besides, the “Production rate of mono- and disaccharides” value in assay [2] is 0.26 units/ml; in assay [3], 0.31 units/ml. For the same compound, the Residual activity in assay [7] is on record as 97.4%; in assay [8], 108.5%.

Regarding `OC[C@H]1O[C@H](OC[C@H]2O[C@H](OC[C@H]3O[C@H](OC[C@H]4OC(O)[C@H](O)[C@@H](O)[C@@H]4O)[C@H](O)[C@@H](O)[C@@H]3O)[C@H](O)[C@@H](O)[C@@H]2O)[C@H](O)[C@@H](O)[C@@H]1O` (stereo partly drawn) [Isomaltotetraose], the “Action of the enzyme on the substrate” value in assay [1], in assay [2] and in assay [3] was “did not act” each time. Further, the Liberated oligosaccharide entry in assay [2] and in assay [3] was “not decomposed” each time. Besides, the “Production rate of mono- and disaccharides” value in assay [2] and in assay [3] was 0 units/ml each time.

On to Maltopentaose [Maltopentaose (G5)], for which the Enzyme activity in assay [4] is on record as 103.5 unit/ml; in assay [5], 111.3 units/ml. In assay [5], the “Activity relative to G3” value is reported as “approximately 8 times”. In addition, the “Production rate of di- and trisaccharides” value in assay [6] worked out at 6.12 units/ml. In addition, the Liberated oligosaccharide result in assay [2] and in assay [3] was “Glucose + G2 + G3 + G4” each time. Besides, the entries for the “Production rate of mono- and disaccharides” value in assay [2] and in assay [3] were 2.12 units/ml and 1.79 units/ml, respectively. The Residual activity in assay [7] worked out at 101.9%; in assay [8], 105.8%.

Regarding `OC[C@H]1O[C@H](OC[C@H]2O[C@H](O[C@H]3[C@H](O)[C@@H](O)C(O)O[C@@H]3CO)[C@H](O)[C@@H](O)[C@@H]2O)[C@H](O)[C@@H](O)[C@@H]1O` (stereo partly drawn) [Panose], the “Action of the enzyme on the substrate” value in assay [1], in assay [2] and in assay [3] was “did not act” throughout. Besides, the Liberated oligosaccharide result in assay [2] and in assay [3] was “not decomposed” each time. For the same compound, the “Production rate of mono- and disaccharides” value in assay [2] and in assay [3] was 0 units/ml each time.
